{"source": "patent US9907857B2", "about": "“Peptide having cell membrane penetrating activity” (EWHA UNIVERSITY-INDUSTRY COLLABORATION FOUNDATION, priority 2006, dated 2018)", "tested_on": "HeLa cells", "assay": "Cell penetrating activity of FITC-labelled mutant peptides, mean fluorescence intensity by FACS", "format": "cell-based", "settings": "for mean fluorescence intensity (MFI) relative to WT, MFI of WT at 10 μM set to 1: peptide at 10 μM; for mean fluorescence intensity (MFI) relative to WT, MFI of WT at 10 μM set to 1 / mean fluorescence intensity (MFI) relative to WT / translocation efficiency compared with another peptide variant (comparator named in the value): 2 hours, FACS; for mean fluorescence intensity (MFI) relative to WT: peptide at 100 μM; for penetrating activity compared with TAT: 100 μM", "experimental": "N-terminus of each peptide was labeled with fluorescence dye, FITC and C-terminus was protected. Peptide purity (>95%) was determined by HPLC. Synthesis of the peptides of the present invention was requested to PEPTRON, Inc.\nHeLa cell line was propagated in DMEM supplemented with 10% FBS and 100 units/mL penicillin-streptomycin. Cells were grown in a 5% CO2 incubator at 37° C.\nHeLa cells were cultured in 6-well plate until they were 70˜80% grown up before a day of the experiment. The cells were washed with DMEM of 37° C. twice, and TCTP-derived peptides synthesized in Example 5-1) were treated to the culture medium in a dose dependent manner (0, 1, 10, 100 μM), then the cells was incubated for 2 hours in an CO2 incubator at 37° C.,\nAfter the incubation, the cells were washed in cool PBS two times and treated with 1 mg/ml trypsin for 15 min at 37° C. to digest peptides attached on cell membrane and washed in PBS twice again. Then, the cells were analyzed by FACS at emission 510 nm and excitation 530 nm for a measurement of FITC of intracellular uptake marker (FIGS. 7, 8 and 9). Intracellular translocation efficiency of mutant peptides, TCTP-CPP#1-35(SEQ ID Nos.: 20-54) was compared to wild type(WT), TCTP(1-10)(SEQ ID No.: 1) and control peptide, TAT(48-57).", "note": "Several values for one entry are separate records, joined by “and”; a condition that tells them apart may be missing. Equal entries are not always repeated. Entries after “also recorded” stand apart in the source; their conditions may differ."}
{"sequence": "CIISRDLISH (mutant peptide based on human sequence; (1)..(10) TCTP-CPP#6) [SEQ ID No.: 25]", "values": [{"measurement": "mean fluorescence intensity (MFI) relative to WT, MFI of WT at 10 μM set to 1", "result": 0.91, "unit": "times"}, {"measurement": "mean fluorescence intensity (MFI) relative to WT", "result": 1.81, "unit": "times"}]}
{"sequence": "FIIFRIAASHKK (mutant peptide based on human sequence; (1)..(12) TCTP-CPP#15) [SEQ ID No.: 34]", "values": [{"measurement": "translocation efficiency compared with another peptide variant (comparator named in the value)", "result": "increased result of translocation efficiency at the concentration of 10 μM and a decreased result at 100 μM, compared to SEQ ID No.: 31"}]}
{"sequence": "LIIFAIAASHKK (mutant peptide based on human sequence; (1)..(12) TCTP-CPP#34) [SEQ ID No.: 53]", "values": [{"measurement": "mean fluorescence intensity (MFI) relative to WT, MFI of WT at 10 μM set to 1", "result": 8.24, "unit": "times"}]}
{"sequence": "LIIFRIAASHKK (mutant peptide based on human sequence; (1)..(12) TCTP-CPP#16) [SEQ ID No.: 35]", "values": [{"measurement": "translocation efficiency compared with another peptide variant (comparator named in the value)", "result": "increased result of translocation efficiency at the concentration of 10 μM and a decreased result at 100 μM, compared to SEQ ID No.: 31"}, {"measurement": "mean fluorescence intensity (MFI) relative to WT, MFI of WT at 10 μM set to 1", "result": 29.53, "unit": "times"}]}
{"sequence": "LIIFRILISHHH (mutant peptide based on human sequence; (1)..(12) TCTP-CPP#30) [SEQ ID No.: 49]", "values": [{"measurement": "cell penetrating activity compared with TAT", "setting": "concentration not given", "result": "excellent activity compared with TAT"}]}
{"sequence": "LIIFRILISHKK (mutant peptide based on human sequence; (1)..(12) TCTP-CPP#27) [SEQ ID No.: 46]", "values": [{"measurement": "translocation efficiency compared with another peptide variant (comparator named in the value)", "result": "substitution for leucine caused the decreased penetrating activity"}, {"measurement": "mean fluorescence intensity (MFI) relative to WT, MFI of WT at 10 μM set to 1", "result": 3.75, "unit": "times"}]}
{"sequence": "MIIFAIAASHKK (mutant peptide based on human sequence; (1)..(12) TCTP-CPP#26) [SEQ ID No.: 45]", "values": [{"measurement": "mean fluorescence intensity (MFI) relative to WT, MFI of WT at 10 μM set to 1", "result": 11.47, "unit": "times"}]}
{"sequence": "MIIFKIAASHKK (mutant peptide based on human sequence; (1)..(12) TCTP-CPP#24) [SEQ ID No.: 43]", "values": [{"measurement": "mean fluorescence intensity (MFI) relative to WT, MFI of WT at 10 μM set to 1", "result": 12.1, "unit": "times"}]}
{"sequence": "MIIFRAAASHKK (mutant peptide based on human sequence; (1)..(12) TCTP-CPP#14) [SEQ ID No.: 33]", "values": [{"measurement": "translocation efficiency compared with another peptide variant (comparator named in the value)", "result": "similarly increased at 100 μM"}, {"measurement": "mean fluorescence intensity (MFI) relative to WT, MFI of WT at 10 μM set to 1", "result": 3.2, "unit": "times"}]}
{"sequence": "MIIFRDLISH (mutant peptide based on human sequence; (1)..(10) TCTP-CPP#3) [SEQ ID No.: 22]", "values": [{"measurement": "penetrating activity compared with TAT", "result": "better penetrating activity than TAT(100 μM)"}, {"measurement": "mean fluorescence intensity (MFI) relative to WT, MFI of WT at 10 μM set to 1", "result": 19.63, "unit": "times"}, {"measurement": "mean fluorescence intensity (MFI) relative to WT", "result": 216.75, "unit": "times"}]}
{"sequence": "MIIFRIAASHKK (mutant peptide based on human sequence; (1)..(12) TCTP-CPP#12) [SEQ ID No.: 31]", "values": [{"measurement": "translocation efficiency compared with another peptide variant (comparator named in the value)", "result": "similarly increased at 100 μM"}, {"measurement": "mean fluorescence intensity (MFI) relative to WT, MFI of WT at 10 μM set to 1", "result": "29 times and 26.77 times"}]}
{"sequence": "MIIFRIAAYHKK (mutant peptide based on human sequence; (1)..(12) TCTP-CPP#20) [SEQ ID No.: 39]", "values": [{"measurement": "translocation efficiency compared with another peptide variant (comparator named in the value)", "result": "lower than SEQ ID No.: 34 at the concentration of 100 μM"}, {"measurement": "mean fluorescence intensity (MFI) relative to WT, MFI of WT at 10 μM set to 1", "result": 25.0, "unit": "times"}]}
{"sequence": "MIIFRILISHKK (mutant peptide based on human sequence; (1)..(12) TCTP-CPP#28) [SEQ ID No.: 47]", "values": [{"measurement": "mean fluorescence intensity (MFI) relative to WT, MFI of WT at 10 μM set to 1", "result": 7.04, "unit": "times"}]}
{"sequence": "MIIYRAEISH (mutant peptide based on human sequence; (1)..(10) TCTP-CPP#10) [SEQ ID No.: 29]", "values": [{"measurement": "cell penetrating activity compared with WT SEQ ID No.: 1", "setting": "concentration not given", "result": "decreased to same degree with alanine substituent"}]}
{"sequence": "MIIYRALISHKK (mutant peptide based on human sequence; (1)..(12) TCTP-CPP#7) [SEQ ID No.: 26]", "values": [{"measurement": "penetrating activity compared with TAT", "result": "better penetrating activity than TAT(100 μM)"}, {"measurement": "cell penetrating activity compared with WT SEQ ID No.: 1", "setting": "concentration not given", "result": "increased cell penetrating activity"}, {"measurement": "mean fluorescence intensity (MFI) relative to WT, MFI of WT at 10 μM set to 1", "result": 6.04, "unit": "times"}, {"measurement": "mean fluorescence intensity (MFI) relative to WT", "result": 144.6, "unit": "times"}]}
{"sequence": "MIIYRDKKSH (mutant peptide based on human sequence; (1)..(10) TCTP-CPP#2) [SEQ ID No.: 21]", "values": [{"measurement": "cell penetrating activity compared with WT SEQ ID No.: 1", "setting": "concentration not given", "result": "decreased twice"}]}
{"sequence": "MIIYRIAASHKK (mutant peptide based on human sequence; (1)..(12) TCTP-CPP#8) [SEQ ID No.: 27]", "values": [{"measurement": "penetrating activity compared with TAT", "result": "better penetrating activity than TAT(100 μM)"}, {"measurement": "cell penetrating activity compared with WT SEQ ID No.: 1", "setting": "concentration not given", "result": "increased cell penetrating activity"}, {"measurement": "mean fluorescence intensity (MFI) relative to WT, MFI of WT at 10 μM set to 1", "result": 1.73, "unit": "times"}, {"measurement": "mean fluorescence intensity (MFI) relative to WT", "result": 342.9, "unit": "times"}]}
{"sequence": "WIIFKIAASHKK (mutant peptide based on human sequence; (1)..(12) TCTP-CPP#25) [SEQ ID No.: 44]", "values": [{"measurement": "mean fluorescence intensity (MFI) relative to WT, MFI of WT at 10 μM set to 1", "result": 15.04, "unit": "times"}]}
{"sequence": "WIIFRAAASHKK (mutant peptide based on human sequence; (1)..(12) TCTP-CPP#18) [SEQ ID No.: 37]", "values": [{"measurement": "translocation efficiency compared with another peptide variant (comparator named in the value)", "result": "lower than SEQ ID No.: 34 at the concentration of 100 μM; also recorded: substitution for tryptophan did not increase translocation efficiency"}, {"measurement": "mean fluorescence intensity (MFI) relative to WT, MFI of WT at 10 μM set to 1", "result": 52.0, "unit": "times"}]}
{"sequence": "WIIFRALISHKK (mutant peptide based on human sequence; (1)..(12) TCTP-CPP#19) [SEQ ID No.: 38]", "values": [{"measurement": "translocation efficiency compared with another peptide variant (comparator named in the value)", "result": "lower than SEQ ID No.: 34 at the concentration of 100 μM; also recorded: substitution for tryptophan did not increase translocation efficiency"}, {"measurement": "mean fluorescence intensity (MFI) relative to WT, MFI of WT at 10 μM set to 1", "result": 55.6, "unit": "times"}]}
{"sequence": "WIIFRIAASHKK (mutant peptide based on human sequence; (1)..(12) TCTP-CPP#17) [SEQ ID No.: 36]", "values": [{"measurement": "translocation efficiency compared with another peptide variant (comparator named in the value)", "result": "stronger than SEQ ID No.: 40(WT-IX:Y) and SEQ ID No.: 42(WT-IX:T) only at 10 μM"}, {"measurement": "mean fluorescence intensity (MFI) relative to WT, MFI of WT at 10 μM set to 1", "result": 18.4, "unit": "times"}]}
